From PMC6047675, “Neutral metalloaminopeptidases APN and MetAP2 as newly discovered anticancer molecular targets of actinomycin D and its simple analogs” (Oncotarget, 2018)
Like-named read-outs stand apart in the source and are kept apart here. Starred links: 1 amine or outer side, 2 acyl side, 3 side chain; linkers in the order of their positions; H or OH if unused. Positions of bridges follow the written chain, without caps; N, C: chain ends. Non-standard residues stand in square brackets, D forms with d. Residues, ends and D or L forms follow the SMILES beside them. Chains are numbered I, II in the order given. Actinocin(1to9) = Cc1c2oc3c(C)ccc(C(=O)[*:2])c3nc-2c(C(=O)[*:1])c(N)c1=O; Actinocin(9to1) = Cc1c2oc3c(C)ccc(C(=O)[*:1])c3nc-2c(C(=O)[*:2])c(N)c1=O; Pro(4-oxo) = O=C1CN[C@H](C(=O)O)C1; NMeV = CN[C@H](C(=O)O)C(C)C; Sar = CNCC(=O)O

What was measured:
[1] = target: T1, human alanine aminopeptidase (HsAPN) (Homo sapiens, UniProt P15144); experiment: Inhibition of recombinant human APN, fluorogenic substrate Ala-AMC; format: biochemical; details: for mechanism of inhibition of HsAPN: from Lineweaver-Burk and Dixon plots
T1 construct: purchased R&D Systems
Description: (§1) Actinomycin D was purchased as a lyophilized powder from Sigma-Aldrich (Poznan, Poland), Actinomycin X2 was purchased form Adipogen (Liestal, Switzerland). Actinocine and Questiomycin A were synthesized according to a previously described procedure. Recombinant human APN and MetAP2 were purchased as a lyophilized powder from R&D Systems (Minneapolis, USA). Fluorogenic substrates Ala-AMC (L-alanine-4-methylcoumaryl-7-amide) and Met-AMC (L-methionine-4-methylcoumaryl-7-amide) were purchased from PeptaNova (Sandhausen, Germany). Spectrofluorometry was performed on a Spectra MAX Gemini EM fluorimeter (Molecular Devices, Sunnyvale, USA) in a 96-well plate format (Excitation = 355 nm, Emission = 460 nm). Calculations of the kinetic parameters were performed using the SoftMax Pro, GraphPad Prism and Microsoft Excel programs.
(§2) Recombinant human APN enzyme was dissolved in 50 mM Tris-HCl buffer (pH = 7.0) and used directly in the kinetic experiments. Recombinant human MetAP2 was obtained as a lyophilized powder from R&D Systems. The enzyme was dissolved in 100 mM Tris-maleate buffer containing 0.1 mM CoCl2, 100 mM NaCl and 0.075 % v/v albumin at pH = 7.5 and incubated for 30 minutes. After this activation, the enzyme was used directly in the kinetic experiments.
(§3) The inhibitors were screened against human APN and human MetAP2 at 37°C in the assay buffer as described above. For the steady-state measurements, the enzymes were preincubated for 30-60 min at 37°C with an inhibitor before adding the substrate (Ala-AMC, 40 μM for human APN or Met-AMC and 50 μM for MetAP2) to the wells. For the initial state measurements, the enzymes were preincubated for 15-30 min at 37°C before adding the substrate and inhibitor to the wells. The following conditions were used: (1) total volume 100 μL, (2) eight different inhibitor concentrations, and (3) enzyme concentration of 0.3 nM for human APN and 1 nM for MetAP2. The release of the AMC fluorophore was monitored. The linear portion of the progress curve was used to calculate the velocity. hPhePCH2Phe for APN and ebselen for MetAP2 were used as a positive control. The inhibition mechanism was determined from the Lineweaver-Burk and Dixon plot (Figure 2B and 2D). The IC50 values were calculated from the reaction velocity to inhibitor concentration plot fitted to the equation log[I] vs. response. The Ki values were equal to the IC50 for non-competitive inhibitors and were calculated for competitive inhibitors using the following equation: Ki = (IC50-[E]/2)/ (1 + ([S]/Km)), where the IC50 is the concentration of the inhibitor that effected 50% inhibition, [S] and Km are the substrate concentration and Michaelis constant in the absence of inhibitor, respectively, and [E] is the concentration of the enzyme.

[2] = target: T2, human methionine aminopeptidase type 2 (HsMetAP2) (Homo sapiens, UniProt P50579); experiment: Inhibition of recombinant human MetAP2, fluorogenic substrate Met-AMC; format: biochemical; details: for mechanism of inhibition of HsMetAP2: from Lineweaver-Burk and Dixon plots
T2 construct: purchased R&D Systems
Description: as §1, §2, §3

[3] = test system: human acute B- and T-lymphoblastic leukemia, cervix carcinoma and larynx carcinoma; design: method as in PMID 12431048; details: read-out: IC50 cytotoxicity; cited from earlier work
[4] = test system: human leukemia cell line HL-60; details: read-out: LC50 (lethal concentration for a half of population), cytotoxicity HL-60; cited from earlier work
[5] = TRIS buffer, 37°C, average with standard deviation, at least three experiments, read-out: IC50 HsAPN
[6] = TRIS buffer, 37°C, calculated by Cheng-Prusoff equations for non-competitive and competitive inhibitors, average with standard deviation, at least three experiments, read-out: Ki HsAPN
[7] = more effective than Actinomycin D/X2
[8] = TRIS buffer, 37°C, average with standard deviation, at least three experiments, read-out: IC50 HsMetAP
[9] = TRIS buffer, 37°C, calculated by Cheng-Prusoff equations for non-competitive and competitive inhibitors, average with standard deviation, at least three experiments, read-out: Ki HsMetAP

T1 sequence (P15144 whole entry): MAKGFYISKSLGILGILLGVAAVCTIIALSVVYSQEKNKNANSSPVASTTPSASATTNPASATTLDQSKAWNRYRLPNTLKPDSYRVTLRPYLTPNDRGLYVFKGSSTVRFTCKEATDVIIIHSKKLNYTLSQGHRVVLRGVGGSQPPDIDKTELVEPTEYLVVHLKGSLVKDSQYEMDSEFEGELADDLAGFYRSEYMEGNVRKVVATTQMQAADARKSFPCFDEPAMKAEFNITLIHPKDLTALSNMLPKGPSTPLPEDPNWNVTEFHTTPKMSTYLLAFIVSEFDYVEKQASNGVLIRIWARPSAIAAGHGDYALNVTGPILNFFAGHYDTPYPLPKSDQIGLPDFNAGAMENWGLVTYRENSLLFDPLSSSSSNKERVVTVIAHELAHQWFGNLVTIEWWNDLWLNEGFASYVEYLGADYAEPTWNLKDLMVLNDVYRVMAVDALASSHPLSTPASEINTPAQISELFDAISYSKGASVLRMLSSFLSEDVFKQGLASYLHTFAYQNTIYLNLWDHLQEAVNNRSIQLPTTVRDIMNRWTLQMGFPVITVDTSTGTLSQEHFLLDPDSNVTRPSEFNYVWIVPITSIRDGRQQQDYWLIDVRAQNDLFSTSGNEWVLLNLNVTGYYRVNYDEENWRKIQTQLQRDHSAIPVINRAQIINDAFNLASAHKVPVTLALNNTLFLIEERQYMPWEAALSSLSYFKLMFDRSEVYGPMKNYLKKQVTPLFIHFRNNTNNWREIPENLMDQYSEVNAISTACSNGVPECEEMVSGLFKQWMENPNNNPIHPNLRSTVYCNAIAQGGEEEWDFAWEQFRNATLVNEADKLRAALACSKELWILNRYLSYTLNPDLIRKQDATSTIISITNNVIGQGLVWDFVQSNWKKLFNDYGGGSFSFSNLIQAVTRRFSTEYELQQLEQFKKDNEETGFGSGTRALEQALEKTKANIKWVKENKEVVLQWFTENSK
T2 sequence (P50579 whole entry): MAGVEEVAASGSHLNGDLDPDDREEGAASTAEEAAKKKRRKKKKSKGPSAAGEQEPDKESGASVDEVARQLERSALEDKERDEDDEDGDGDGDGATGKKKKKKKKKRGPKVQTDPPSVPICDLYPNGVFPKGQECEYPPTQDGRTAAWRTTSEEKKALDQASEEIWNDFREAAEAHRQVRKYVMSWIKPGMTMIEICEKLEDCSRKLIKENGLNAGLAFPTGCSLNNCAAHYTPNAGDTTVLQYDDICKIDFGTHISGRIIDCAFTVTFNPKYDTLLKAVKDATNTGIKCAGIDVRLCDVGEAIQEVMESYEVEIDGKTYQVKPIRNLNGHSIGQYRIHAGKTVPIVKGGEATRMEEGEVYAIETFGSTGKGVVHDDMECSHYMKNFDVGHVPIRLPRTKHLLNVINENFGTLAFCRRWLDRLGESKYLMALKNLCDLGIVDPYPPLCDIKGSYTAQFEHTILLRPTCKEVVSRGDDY

| IC50 [1, 5] [µM] | Ki [1, 6] [µM] | effectiveness relative to Actinomycin D/X2, HsAPN [1, 7] | IC50 [2, 8] [µM] | Ki [2, 9] [µM] | effectiveness relative to Actinomycin D/X2, HsMetAP2 [2, 7] | times less effective, HsAPN ([1]; in contrast to Actinocin) [times] | decrease in activity for HsAPN compared to the lead compound ([1]; lead compound = Actinomycin D) | times less effective, HsMetAP2 ([2]; in contrast to Actinocin) [times] | decrease in activity for HsMetAP2 compared to the lead compound ([2]; lead compound = Actinomycin D) | SMILES | mechanism of inhibition of HsAPN [1] | mechanism of inhibition of HsMetAP2 [2] | IC50 [1] [µM] | Ki [1] [µM] | IC50 [2] [µM] | Ki [2] [µM] | IC50 [3] [µM] | CC50 [4] [µM] |
| --- | --- | --- | --- | --- | --- | --- | --- | --- | --- | --- | --- | --- | --- | --- | --- | --- | --- | --- |
| 7.25 ± 1.2 | 6.04 ± 0.51 | twice as effective | 2.34 ± 0.62 | 2.04 ± 0.23 | four times as effective | – | – | – | – | Cc1c2oc3c(C)ccc(C(=O)O)c3nc-2c(C(=O)O)c(N)c1=O [Actinocin] | competitive | competitive | – | – | – | – | – | – |
| – | – | – | – | – | – | – | – | – | – | Cc1c2oc3c(C)ccc(C(=O)N[C@@H]4C(=O)N[C@H](C(C)C)C(=O)N5CCC[C@H]5C(=O)N(C)CC(=O)N(C)[C@@H](C(C)C)C(=O)O[C@@H]4C)c3nc-2c(C(=O)N[C@@H]2C(=O)N[C@H](C(C)C)C(=O)N3CCC[C@H]3C(=O)N(C)CC(=O)N(C)[C@@H](C(C)C)C(=O)O[C@@H]2C)c(N)c1=O [Actinomycin D] (I: T[dV]P[Sar][NMeV] / II: T[dV]P[Sar][NMeV]; ester I:1-I:C, II:1-II:C; linker I:N-II:N via Actinocin(9to1)) | non-competitive | non-competitive | 11.9 ± 1.1 | 11.9 ± 1.1 | 7.37 ± 0.56 | 7.37 ± 0.56 | 0.001 to 0.008 | – |
| – | – | – | – | – | – | – | – | – | – | Cc1c2oc3c(C)ccc(C(=O)N[C@@H]4C(=O)N[C@H](C(C)C)C(=O)N5CCC[C@H]5C(=O)N(C)CC(=O)N(C)[C@@H](C(C)C)C(=O)O[C@@H]4C)c3nc-2c(C(=O)N[C@@H]2C(=O)N[C@H](C(C)C)C(=O)N3CC(=O)C[C@H]3C(=O)N(C)CC(=O)N(C)[C@@H](C(C)C)C(=O)O[C@@H]2C)c(N)c1=O [Actinomycin X2, reference compound] (I: T[dV][Pro(4-oxo)][Sar][NMeV] / II: T[dV]P[Sar][NMeV]; ester I:1-I:C, II:1-II:C; linker I:N-II:N via Actinocin(1to9)) | non-competitive | non-competitive | 12.2 ± 1.4 | 12.2 ± 1.4 | 8.33 ± 0.75 | 8.33 ± 0.75 | – | 0.008 |
| 63 ± 3.2 | 52.5 ± 2.7 | – | 34.9 ± 3.2 | 30.4 ± 3.2 | – | 10 | five-fold | 10 | five-fold | Nc1cc2nc3ccccc3oc-2cc1=O [Questiomycin A] | competitive | competitive | – | – | – | – | 1 to 3 | – |
